Experimental data: ChEMBL document CHEMBL5579851, “Synthesis and antifungal evaluation of novel triazole derivatives bearing a pyrazole-methoxyl moiety” (Eur J Med Chem, 2024)
In brackets after ≈: the same amount, converted by molar mass.

Key:
Saccharomyces cerevisiae [1] = test: Antifungal activity against recombinant Saccharomyces cerevisiae Y2716 overexpressing CpErg11 Y132F mutant/ CpCpr assessed as inhibition of fungal growth incubated for 48 hrs by CLSI based broth microdilution assay; type: functional
Saccharomyces cerevisiae [2] = test: Antifungal activity against recombinant Saccharomyces cerevisiae Y2765 overexpressing CauMdr1 assessed as inhibition of fungal growth incubated for 48 hrs by CLSI based broth microdilution assay; type: functional
Saccharomyces cerevisiae [3] = test: Antifungal activity against recombinant Saccharomyces cerevisiae Y2301 overexpressing ScErg11 Y140F mutant assessed as inhibition of fungal growth incubated for 48 hrs by CLSI based broth microdilution assay; type: functional
Saccharomyces cerevisiae [4] = test: Antifungal activity against recombinant Saccharomyces cerevisiae Y2374 overexpressing CgErg11 assessed as inhibition of fungal growth incubated for 48 hrs by CLSI based broth microdilution assay; type: functional
Saccharomyces cerevisiae [5] = test: Antifungal activity against recombinant Saccharomyces cerevisiae Y2411 overexpressing ScErg11 assessed as inhibition of fungal growth incubated for 48 hrs by CLSI based broth microdilution assay; type: functional
Saccharomyces cerevisiae [6] = test: Antifungal activity against recombinant Saccharomyces cerevisiae Y570 overexpressing CaCdr1 assessed as inhibition of fungal growth incubated for 48 hrs by CLSI based broth microdilution assay; type: functional
Saccharomyces cerevisiae [7] = test: Antifungal activity against recombinant Saccharomyces cerevisiae Y2766 overexpressing CauCdr1 assessed as inhibition of fungal growth incubated for 48 hrs by CLSI based broth microdilution assay; type: functional
Saccharomyces cerevisiae [8] = test: Antifungal activity against recombinant Saccharomyces cerevisiae Y2462 overexpressing ScErg11/ScNcp1 assessed as inhibition of fungal growth incubated for 48 hrs by CLSI based broth microdilution assay; type: functional
Saccharomyces cerevisiae [9] = test: Antifungal activity against recombinant Saccharomyces cerevisiae Y2513 overexpressing ScErg11 Y140H mutant assessed as inhibition of fungal growth incubated for 48 hrs by CLSI based broth microdilution assay; type: functional
Saccharomyces cerevisiae [10] = test: Antifungal activity against recombinant Saccharomyces cerevisiae Y2767 overexpressing CauErg11 assessed as inhibition of fungal growth incubated for 48 hrs by CLSI based broth microdilution assay; type: functional
Saccharomyces cerevisiae [11] = test: Antifungal activity against recombinant Saccharomyces cerevisiae Y2769 overexpressing CauErg11 K143R mutant assessed as inhibition of fungal growth incubated for 48 hrs by CLSI based broth microdilution assay; type: functional
Saccharomyces cerevisiae [12] = test: Antifungal activity against recombinant Saccharomyces cerevisiae Y2459 overexpressing CaErg11/CaCpr assessed as inhibition of fungal growth incubated for 48 hrs by CLSI based broth microdilution assay; type: functional
Saccharomyces cerevisiae [13] = test: Antifungal activity against recombinant Saccharomyces cerevisiae Y2300 overexpressing ScErg11 assessed as inhibition of fungal growth incubated for 48 hrs by CLSI based broth microdilution assay; type: functional
Saccharomyces cerevisiae [14] = test: Antifungal activity against recombinant Saccharomyces cerevisiae Y2721 overexpressing CpErg11/CpCpr assessed as inhibition of fungal growth incubated for 48 hrs by CLSI based broth microdilution assay; type: functional
Saccharomyces cerevisiae [15] = test: Antifungal activity against recombinant Saccharomyces cerevisiae Y2768 overexpressing CauErg11 T132F mutant assessed as inhibition of fungal growth incubated for 48 hrs by CLSI based broth microdilution assay; type: functional
Saccharomyces cerevisiae [16] = test: Antifungal activity against recombinant Saccharomyces cerevisiae Y525 overexpressing CaMdr1 assessed as inhibition of fungal growth incubated for 48 hrs by CLSI based broth microdilution assay; type: functional
Saccharomyces cerevisiae [17] = test: Antifungal activity against recombinant Saccharomyces cerevisiae Y2711 overexpressing CnErg11 assessed as inhibition of fungal growth incubated for 48 hrs by CLSI based broth microdilution assay; type: functional
Candida albicans [18] = test: Antifungal activity against Candida albicans 10231 assessed as inhibition of fungal growth incubated for 48 hrs by CLSI based broth microdilution assay; type: functional
Candida tropicalis [19] = test: Potency index, ratio of ravuconazole MIC to test compound MIC for antifungal activity against Candida tropicalis 8915 assessed as inhibition of fungal growth incubated for 48 hrs by CLSI based broth microdilution assay; type: functional
Candida tropicalis [20] = test: Potency index, ratio of fluconazole MIC to test compound MIC for antifungal activity against Candida tropicalis 8915 assessed as inhibition of fungal growth incubated for 48 hrs by CLSI based broth microdilution assay; type: functional
Nakaseomyces glabratus = test: Antifungal activity against Candida glabrata 537 assessed as inhibition of fungal growth incubated for 48 hrs by CLSI based broth microdilution assay; type: functional
[Candida] auris [21] = Antifungal activity against fluconazole-resistant Candida auris 918 assessed as inhibition of fungal growth incubated for 48 hrs by CLSI based broth microdilution assay; type: functional; details: Candidozyma auris
[Candida] auris [22] = Antifungal activity against fluconazole-resistant Candida auris 891 assessed as inhibition of fungal growth incubated for 48 hrs by CLSI based broth microdilution assay; type: functional; details: Candidozyma auris
Candida albicans [23] = test: Antifungal activity against fluconazole-resistant Candida albicans 901 assessed as inhibition of fungal growth incubated for 48 hrs by CLSI based broth microdilution assay; type: functional
Candida parapsilosis = test: Antifungal activity against Candida parapsilosis 22019 assessed as inhibition of fungal growth incubated for 48 hrs by CLSI based broth microdilution assay; type: functional; details: Lodderomyces parapsilosis
[Candida] auris [24] = Antifungal activity against fluconazole-resistant Candida auris 919 assessed as inhibition of fungal growth incubated for 48 hrs by CLSI based broth microdilution assay; type: functional; details: Candidozyma auris
Pichia kudriavzevii = test: Antifungal activity against Candida krusei 4996 assessed as inhibition of fungal growth incubated for 48 hrs by CLSI based broth microdilution assay; type: functional
Candida tropicalis [25] = test: Antifungal activity against Candida tropicalis 8915 assessed as inhibition of fungal growth incubated for 48 hrs by CLSI based broth microdilution assay; type: functional
Candida albicans [26] = test: Antifungal activity against Candida albicans SC5314 assessed as inhibition of fungal growth incubated for 48 hrs by CLSI based broth microdilution assay; type: functional
Candida albicans [27] = test: Antifungal activity against fluconazole-resistant Candida albicans 904 assessed as inhibition of fungal growth incubated for 48 hrs by CLSI based broth microdilution assay; type: functional
Cryptococcus neoformans = test: Antifungal activity against Cryptococcus neoformans 32609 assessed as inhibition of fungal growth incubated for 72 hrs by CLSI based broth microdilution assay; type: functional
[28] = Cytotoxicity against HUVEC cells assessed as cell viability at 128 ug/ml incubated for 24 hrs by CCK-8 assay relative to control; type: toxicity, cell-based; details: human, at 128 µg/mL, read-out: Activity

SMILES | MIC (Saccharomyces cerevisiae [1]) [µg/mL] | MIC (Saccharomyces cerevisiae [2]) [µg/mL] | MIC (Saccharomyces cerevisiae [3]) [µg/mL] | MIC (Saccharomyces cerevisiae [4]) [µg/mL] | MIC (Saccharomyces cerevisiae [5]) [µg/mL] | MIC (Saccharomyces cerevisiae [6]) [µg/mL] | MIC (Saccharomyces cerevisiae [7]) [µg/mL] | MIC (Saccharomyces cerevisiae [8]) [µg/mL] | MIC (Saccharomyces cerevisiae [9]) [µg/mL] | MIC (Saccharomyces cerevisiae [10]) [µg/mL] | MIC (Saccharomyces cerevisiae [11]) [µg/mL] | MIC (Saccharomyces cerevisiae [12]) [µg/mL] | MIC (Saccharomyces cerevisiae [13]) [µg/mL] | MIC (Saccharomyces cerevisiae [14]) [µg/mL] | MIC (Saccharomyces cerevisiae [15]) [µg/mL] | MIC (Saccharomyces cerevisiae [16]) [µg/mL] | MIC (Saccharomyces cerevisiae [17]) [µg/mL] | MIC (Candida albicans [18]) [µg/mL] | MIC (Nakaseomyces glabratus) [µg/mL] | MIC ([Candida] auris [21]) [µg/mL] | other results
CC(=O)N1CCN(c2ccc(OCC3COC(Cn4ccnc4)(c4ccc(Cl)cc4Cl)O3)cc2)CC1 (centres undefined) [KETOCONAZOLE] | 2 | 0.25 | 2 | 0.5 | 0.25 | 64 | 8 | 1 | 1 | 0.5 | 1 | 0.5 | 1 | 0.5 | 1 | 0.25 | 8 | – | – | – | –
C[C@@H](OCc1ccn(Cc2ccc(Br)cc2)n1)[C@](O)(Cn1cncn1)c1ccc(F)cc1F | – | – | – | – | – | – | – | – | – | – | – | – | – | – | – | – | – | ≤ 0.125 | ≤ 0.125 | 8 (≈ 15.4 µM) | Ratio (Candida tropicalis [19]): 32; Ratio (Candida tropicalis [20]): 256; MIC ([Candida] auris [22]): 16 µg/mL (≈ 30.9 µM); MIC (Candida albicans [23]): 32 µg/mL (≈ 61.7 µM); MIC (Candida parapsilosis): 0.25 µg/mL (≈ 0.482 µM); MIC ([Candida] auris [24]): 8 µg/mL (≈ 15.4 µM); MIC (Pichia kudriavzevii): 2 µg/mL (≈ 3.86 µM); MIC (Candida tropicalis [25]): 0.25 µg/mL (≈ 0.482 µM); MIC (Candida albicans [26]): ≤ 0.125 µg/mL; MIC (Candida albicans [27]): 16 µg/mL (≈ 30.9 µM); MIC (Cryptococcus neoformans): 0.25 µg/mL (≈ 0.482 µM)
C[C@@H]1[C@H](O)[C@@H](C)/C=C/C=C/C=C/C=C/C=C/C=C/C=C/[C@H](O[C@@H]2O[C@H](C)[C@@H](O)[C@H](N)[C@@H]2O)C[C@@H]2O[C@](O)(C[C@@H](O)C[C@@H](O)[C@H](O)CC[C@@H](O)C[C@@H](O)CC(=O)O[C@H]1C)C[C@H](O)[C@H]2C(=O)O [AMPHOTERICIN B] | – | – | – | – | – | – | – | – | – | – | – | – | – | – | – | – | – | – | – | – | viability at 24 h, 128 ug/ml [28]: 30.5%
C[C@@H](c1ncncc1F)[C@](O)(Cn1cncn1)c1ccc(F)cc1F [VORICONAZOLE] | 0.25 | 1 | 0.0313 | 0.0313 | 0.008 | 8 | 2 | 0.063 | 0.0313 | 0.0313 | 0.063 | 0.016 | 0.0313 | 0.0313 | 0.25 | 0.5 | 0.008 | – | – | – | –
C[C@@H](OCc1ccn(Cc2ccc(Cl)cc2F)n1)[C@](O)(Cn1cncn1)c1ccc(F)cc1F | – | – | – | – | – | – | – | – | – | – | – | – | – | – | – | – | – | 0.25 (≈ 0.508 µM) | 0.25 (≈ 0.508 µM) | 32 (≈ 65.1 µM) | MIC ([Candida] auris [22]): 8 µg/mL (≈ 16.3 µM); MIC (Candida albicans [23]): 16 µg/mL (≈ 32.5 µM); MIC (Candida parapsilosis): 0.5 µg/mL (≈ 1.02 µM); MIC ([Candida] auris [24]): 16 µg/mL (≈ 32.5 µM); MIC (Pichia kudriavzevii): 2 µg/mL (≈ 4.07 µM); MIC (Candida tropicalis [25]): 0.5 µg/mL (≈ 1.02 µM); MIC (Candida albicans [26]): ≤ 0.125 µg/mL; MIC (Candida albicans [27]): 8 µg/mL (≈ 16.3 µM); MIC (Cryptococcus neoformans): 0.25 µg/mL (≈ 0.508 µM)
C[C@@H](OCc1ccn(Cc2ccc(I)cc2)n1)[C@](O)(Cn1cncn1)c1ccc(F)cc1F | – | – | – | – | – | – | – | – | – | – | – | – | – | – | – | – | – | ≤ 0.125 | ≤ 0.125 | 16 (≈ 28.3 µM) | MIC ([Candida] auris [22]): 16 µg/mL (≈ 28.3 µM); MIC (Candida albicans [23]): 8 µg/mL (≈ 14.2 µM); MIC (Candida parapsilosis): 0.25 µg/mL (≈ 0.442 µM); MIC ([Candida] auris [24]): 4 µg/mL (≈ 7.08 µM); MIC (Pichia kudriavzevii): 2 µg/mL (≈ 3.54 µM); MIC (Candida tropicalis [25]): 0.5 µg/mL (≈ 0.884 µM); MIC (Candida albicans [26]): ≤ 0.125 µg/mL; MIC (Candida albicans [27]): 16 µg/mL (≈ 28.3 µM); MIC (Cryptococcus neoformans): 0.25 µg/mL (≈ 0.442 µM)
C[C@@H](c1nc(-c2ccc(C#N)cc2)cs1)[C@](O)(Cn1cncn1)c1ccc(F)cc1F [RAVUCONAZOLE] | 0.008 | 0.016 | 0.016 | 0.008 | 0.008 | 16 | 2 | 0.008 | 0.008 | 0.016 | 0.008 | 0.008 | 0.008 | 0.008 | 0.008 | 0.063 | 0.008 | ≤ 0.125 | ≤ 0.125 | 1 (≈ 2.29 µM) | MIC ([Candida] auris [22]): 1 µg/mL (≈ 2.29 µM); MIC (Candida albicans [23]): 16 µg/mL (≈ 36.6 µM); MIC (Candida parapsilosis): ≤ 0.125 µg/mL; MIC ([Candida] auris [24]): 1 µg/mL (≈ 2.29 µM); MIC (Pichia kudriavzevii): 1 µg/mL (≈ 2.29 µM); MIC (Candida tropicalis [25]): 8 µg/mL (≈ 18.3 µM); MIC (Candida albicans [26]): ≤ 0.125 µg/mL; MIC (Candida albicans [27]): 16 µg/mL (≈ 36.6 µM); MIC (Cryptococcus neoformans): ≤ 0.125 µg/mL
CC[C@@H]([C@H](C)O)n1ncn(-c2ccc(N3CCN(c4ccc(OC[C@@H]5CO[C@@](Cn6cncn6)(c6ccc(F)cc6F)C5)cc4)CC3)cc2)c1=O [POSACONAZOLE] | 1 | 0.125 | 2 | 0.125 | 0.5 | 8 | 0.125 | 0.125 | 2 | 0.063 | 1 | 0.125 | 1 | 0.25 | 1 | 0.125 | 0.0313 | – | – | – | –
